The record followed here is ChEMBL document CHEMBL1201862, “PubChem BioAssay data set” (2004).

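Values below derive from 48-hour exposures of cells grown in 96-well plates, with endpoints linearly interpolated between the two concentrations bracketing the appropriate inhibition level. GI50 marks 50% less growth.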 Activity calls are given as the source filed them. Cut-off read from the data, not from the text of the source: active = GI50 up to about 1.1 µM and inactive = higher.

Some test systems named below: A498; EKVX; HCC 2998; SNB-75; BT-549; HCT-116; NCI-H23; MDA-MB-435; K562; MOLT-4; OVCAR-5; UO-31; SK-MEL-28; 786-0; UACC-62; M14; SW-620; SF-295; T47D.
Common to all, as to assay: NCI anticancer screen, dose series, 48 h

On to `CCOc1cc2c(cc1O)/C(=N\O)C[C@@H]1[C@@H]2CC[C@]2(C)[C@@H](O)CC[C@@H]12`, for which the GI50 in the test with A498 is < 0.0272 µM (active); with EKVX it was 55.2 µM (inactive); in the test with HCC 2998, 2.72 µM (inactive); in the test on SNB-75 it was < 0.01 µM (active); in the test with BT-549, 0.0371 µM (active); with HCT-116 it was < 0.0211 µM (active). In addition, the GI50 with NCI-H23 was 0.0455 µM (active); in the test on MDA-MB-435, 0.011 µM (active); with K562 it was < 0.0173 µM (active); in the test on MOLT-4, < 0.023 µM (active); with OVCAR-5 it was 5.85 µM (inactive); in the test on UO-31 it was 0.147 µM (active). Besides, the GI50 was < 0.0276 µM (active) in the test with SK-MEL-28, < 0.0208 µM (active) in the test with 786-0, < 0.0191 µM (active) in the test on UACC-62 and 0.0144 µM (active) in the test with M14.

For `Cc1n[nH]c(=O)n1Nc1ccccc1`, the GI50 in the test on EKVX, in the test with HCC 2998, in the test with SNB-75, in the test on BT-549, in the test with SW-620 and in the test with HCT-116 was > 100 µM (inactive) throughout. Further, the GI50 in the test with NCI-H23, in the test with MDA-MB-435, in the test on K562, with MOLT-4, in the test with OVCAR-5 and in the test with SF-295 was > 100 µM (inactive) each time. Moreover, the GI50 in the test on UO-31, in the test with SK-MEL-28, in the test with 786-0, in the test with T47D, in the test with UACC-62 and in the test with M14 was > 100 µM (inactive) in each case.

Consider `Cc1ccc(O)c(-c2cscn2)c1`, for which the GI50 with A498 is 15.3 µM (inactive); with EKVX it was 32.2 µM (inactive); with HCC 2998 it was 24.7 µM (inactive); in the test with BT-549 it was 74.5 µM (inactive); in the test with SW-620 it was 51.5 µM (inactive); in the test with HCT-116, 30.4 µM (inactive). Further, the GI50 in the test with NCI-H23 was 39.4 µM (inactive); with MDA-MB-435, 52.6 µM (inactive); in the test with K562, 52 µM (inactive); in the test with MOLT-4, 35.1 µM (inactive); in the test on OVCAR-5 it was 11.2 µM (inactive); with SF-295, 40 µM (inactive). Besides, the GI50 is 22.8 µM (inactive) in the test on UO-31, 33.2 µM (inactive) in the test with 786-0, 55 µM (inactive) in the test with UACC-62 and 54.2 µM (inactive) with M14.

In the case of `C/C(=N\Nc1nc2cccnc2s1)c1ccccn1`, the GI50 is > 100 µM (inactive) with A498; < 0.01 µM (active) in the test with EKVX; 1.07 µM (active) with HCC 2998; 0.451 µM (active) with SNB-75; 0.117 µM (active) in the test with BT-549; < 0.0143 µM (active) in the test with SW-620. Further, the GI50 with HCT-116 is < 0.01 µM (active); in the test on NCI-H23 it was 0.0228 µM (active); in the test with MDA-MB-435, 0.8 µM (active); in the test with K562, < 0.0149 µM (active); in the test with MOLT-4, < 0.01 µM (active); in the test with OVCAR-5, 0.845 µM (active). Also, the GI50 in the test with SF-295 is 0.288 µM (active); in the test on UO-31, 0.0158 µM (active); in the test on SK-MEL-28 it was 0.364 µM (active); in the test on 786-0 it was 0.0512 µM (active); in the test on UACC-62 it was 0.0586 µM (active); with M14, < 0.01 µM (active).

Consider `CC12CC3OC(=O)C1COC14OC5(C2C1=O)C(O)(CCC1C4CC(O)C2(O)CC=CC(=O)C12C)C(=O)OC35C` (stereo not drawn), for which the GI50 in the test on EKVX, in the test on HCC 2998, in the test with SNB-75, in the test with BT-549, in the test on SW-620 and with HCT-116 was > 100 µM (inactive) throughout. Besides, the GI50 with NCI-H23 is > 100 µM (inactive); in the test on MDA-MB-435 it was 68.4 µM (inactive); with K562, > 100 µM (inactive); with MOLT-4, > 100 µM (inactive); with OVCAR-5, > 100 µM (inactive); in the test with SF-295 it was > 100 µM (inactive). The GI50 in the test with UO-31, in the test with SK-MEL-28, in the test on 786-0, in the test with T47D, in the test with UACC-62 and in the test with M14 was > 100 µM (inactive) throughout.

Take `O=C(NCCO)c1c(O)c2ccccc2[nH]c1=O`: the GI50 was > 100 µM (inactive) with A498; 69.5 µM (inactive) in the test on EKVX; > 100 µM (inactive) with HCC 2998; > 100 µM (inactive) in the test on SNB-75; > 100 µM (inactive) with BT-549; > 100 µM (inactive) in the test with SW-620. Moreover, the GI50 in the test on HCT-116, in the test with NCI-H23, in the test with MDA-MB-435, in the test on K562, in the test on MOLT-4 and with OVCAR-5 was > 100 µM (inactive) each time. In addition, the GI50 with SF-295 is > 100 µM (inactive); in the test on UO-31, 83.6 µM (inactive); with SK-MEL-28, > 100 µM (inactive); in the test with 786-0 it was > 100 µM (inactive).

For `Cc1cc(S(=O)(=O)NC2=Nc3cccc4cccc(c34)N2)c(S)cc1Cl`, the GI50 is > 100 µM (inactive) in the test with EKVX; > 100 µM (inactive) with HCC 2998; > 100 µM (inactive) in the test with SNB-75; > 100 µM (inactive) with BT-549; 78.7 µM (inactive) with SW-620; 18.1 µM (inactive) in the test on HCT-116. Further, the GI50 with MDA-MB-435 is 83.4 µM (inactive); with K562, > 100 µM (inactive); in the test on MOLT-4, 41.6 µM (inactive); with OVCAR-5 it was > 100 µM (inactive); with SF-295 it was 39.5 µM (inactive); in the test with UO-31 it was > 100 µM (inactive). Besides, the GI50 with SK-MEL-28 is > 100 µM (inactive); with 786-0 it was 84.5 µM (inactive); in the test on T47D it was > 100 µM (inactive); with UACC-62 it was > 100 µM (inactive); in the test on M14, 65.2 µM (inactive).

For the molecule `COc1c(O)cc(/C=C/c2cc(O)cc3c2[C@@]2(C(=O)O3)c3c(O)cc(O)cc3OC2c2cccc(O)c2)cc1O` (stereo partly drawn), the GI50 in the test with A498 was 94.6 µM (inactive); in the test on BT-549, 23.7 µM (inactive); in the test on SW-620, 44.2 µM (inactive); with HCT-116, 51.6 µM (inactive); with NCI-H23, 81.7 µM (inactive); in the test with MDA-MB-435, 54.3 µM (inactive). For the same molecule, the GI50 in the test on K562 is 65.3 µM (inactive); in the test on MOLT-4, 1.3 µM (inactive); in the test on UO-31 it was 26.1 µM (inactive); with SK-MEL-28, 35.2 µM (inactive); with 786-0, 68.7 µM (inactive); in the test with T47D, 65.9 µM (inactive). For the same molecule, the values for the GI50 in the test with UACC-62 and with M14 were 30.4 µM (inactive) and 95.3 µM (inactive), respectively.
